{"source": "patent EP3725763A1", "about": "“MYOCARDIAL REGENERATION PROMOTING COMPOUNDS, PREPARATION METHOD THEREOF, PHARMACEUTICAL COMPOSITION, AND THEIR USE” (priority 2019, dated 2020)"}
{"assay": "MTT assay for cell viability testing", "type": "cell-based, rats", "settings": "rat; H9C2 cells, 48 hours treatment at the concentrations of Table 3 (0.4 to 25 µg/ml); DMSO group = 100%; Figure 1", "procedure": "1.1: cell culture of H9C2 cell line\nH9C2 cell line is a cardiac myoblast derived from the rats and is purchased from Food Industry Research and Development Institute, Taiwan. The culture medium is 90% (v/v) Dulbecco's modified Eagle's medium with 4 mM L-glutamine (Gibco™, Cat.12800017) adjusted to contain 4.5g/L glucose and 1.5g/L sodium bicarbonate (Sigma, Cat.S5761) and 10% (v/v) fetal bovine serum (Gibco™, Cat.10437028). Incubate at 37°C in a 5% (v/v) CO2 in air atmosphere.\n1.2: MTT assay for cell viability testing\nIn order to find out the feasible concentration of compounds without cytotoxicity, cells was cultured to 90% confluency and cells were seeded in a 24-well plate at a concentration of 1.5*10^4 cell/well. […] After washing with PBS buffer (phosphate buffered saline), 0.5 mg/ ml of MTT (Thiazolyl Blue Tetrazolium Bromide; Sigma, Cat.M2128) was added and incubate the 24-well plate at 37°C for 4 hours. […] Then the supernatant was removed and 200 µL DMSO was added to dissolve the crystal. Mix each sample again using a pipette and read absorbance at 570 nm (the values are averages of triplicate). The value of the DMSO group is 100% to represent that the cell viability is 100%.", "units": {"viability at 48 h": "%"}}
{"smiles": "C=CCOc1ccc(/C=C/C(=O)c2sccc2N)c(OCC=C)c1", "note": "[Compound 40]", "viability at 48 h": "80 to 120"}
{"smiles": "COC(=O)/C=C/c1ccc(OC(=O)c2ccccc2OC(C)=O)c(OC(=O)c2ccccc2OC(C)=O)c1", "note": "[Compound 29]", "viability at 48 h": "80 to 120"}
{"smiles": "CC(=O)Oc1ccc(/C=C/C(=O)O)cc1", "note": "[Compound 28]", "viability at 48 h": "80 to 120"}
{"smiles": "Cc1ccc(/C=C/C(=O)c2sc(N)nc2C)s1", "note": "[Compound 44]", "viability at 48 h": "80 to 120"}
{"smiles": "O=C(O)/C=C/c1cccs1", "note": "[Compound 38]", "viability at 48 h": "80 to 120"}
{"smiles": "O=C(O)/C=C/c1ccncc1", "note": "[Compound 36]", "viability at 48 h": "80 to 120"}
{"smiles": "CC(=O)C(=O)Oc1ccc(/C=C/C(=O)O)cc1", "note": "[Compound 27]", "viability at 48 h": "80 to 120"}
{"smiles": "COC(=O)/C=C/c1ccccc1", "note": "[Compound 17]", "viability at 48 h": "80 to 120"}
{"smiles": "CC(=O)Oc1ccccc1C(=O)Oc1ccc(/C=C/C(=O)O)cc1", "note": "[Compound 7]", "viability at 48 h": "80 to 120"}
{"smiles": "O=C(O)/C=C/c1ccc(OC(=O)CCCC(=O)O)c(OC(=O)CCCC(=O)O)c1", "note": "[Compound 3]", "viability at 48 h": "80 to 120"}
{"smiles": "CC(=O)Oc1ccccc1C(=O)Oc1ccc(/C=C/C(=O)O)cc1O", "note": "[Compound 8]", "viability at 48 h": "80 to 120"}
{"smiles": "O=C(/C=C/c1ccc(O)c(O)c1)O[C@H](Cc1ccc(O)c(O)c1)C(=O)O", "note": "[Compound 46]", "viability at 48 h": "80 to 120"}
{"smiles": "O=C(/C=C/c1ccsc1)c1ccc(O)cc1", "note": "[Compound 41]", "viability at 48 h": "80 to 120"}
{"smiles": "O=C(O)/C=C/c1ccc(OC(=O)CCCC(=O)O)c(O)c1", "note": "[Compound 2]", "viability at 48 h": "80 to 120"}
{"smiles": "O=C(/C=C/c1ccccc1)OCc1ccc(O)cc1", "note": "[Compound 21]", "viability at 48 h": "80 to 120"}
{"smiles": "O=C(/C=C/c1ccccn1)c1ccccn1", "note": "[Compound 43]", "viability at 48 h": "80 to 120"}
{"smiles": "O=C(/C=C/c1ccc2c(c1)OCO2)n1cccc1", "note": "[Compound 42]", "viability at 48 h": "80 to 120"}
{"smiles": "O=C(O)/C=C/c1ccc(OC(=O)CCCC(=O)O)cc1", "note": "[Compound 1]", "viability at 48 h": "80 to 120"}
{"smiles": "COC(=O)/C=C/c1ccc(O)c(O)c1", "note": "[Compound 18]", "viability at 48 h": "80 to 120"}
{"smiles": "O=C(O)/C=C/c1ccsc1", "note": "[Compound 39]", "viability at 48 h": "80 to 120"}
{"smiles": "O=C(O)/C=C/c1cccnc1", "note": "[Compound 37]", "viability at 48 h": "80 to 120"}
{"smiles": "O=C(/C=C/c1ccc2c(c1)OCO2)Nc1ccc(O)cc1", "note": "[Compound 34]", "viability at 48 h": "80 to 120"}
{"smiles": "O=C(O)/C=C/c1ccc(OC(=O)Cc2cccc(Cl)c2)cc1", "note": "[Compound 9]", "viability at 48 h": "80 to 120"}
{"smiles": "O=C(O)/C=C/c1ccc(OC(=O)c2cccnc2)cc1", "note": "[Compound 30]", "viability at 48 h": "80 to 120"}
{"smiles": "Cc1ccc(/C=C/C(=O)c2cccc(NC(=O)/C=C/c3ccc4c(c3)OCO4)c2)s1", "note": "[Compound 35]", "viability at 48 h": "80 to 120"}
{"smiles": "COC(=O)CCCCC(=O)Oc1ccc(/C=C/C(=O)O)cc1OC(=O)CCCCC(=O)OC", "note": "[Compound 6]", "viability at 48 h": "80 to 120"}
{"smiles": "O=C(O)/C=C/c1ccc(O)cc1O", "note": "[Compound 24]", "viability at 48 h": "80 to 120"}
{"smiles": "COC(=O)/C=C/c1ccc(OC(=O)Cc2cccc(Cl)c2)c(OC(=O)Cc2cccc(Cl)c2)c1", "note": "[Compound 11]", "viability at 48 h": "80 to 120"}
{"smiles": "Nc1ccc(/C=C/C(=O)O)cc1", "note": "[Compound 31]", "viability at 48 h": "80 to 120"}
{"smiles": "O=C(O)/C=C/c1ccc(OC(=O)Cc2cccc(Cl)c2)c(OC(=O)Cc2cccc(Cl)c2)c1", "note": "[Compound 10]", "viability at 48 h": "80 to 120"}
{"smiles": "COC(=O)/C=C/C(=O)Nc1ccc(/C=C/C(=O)O)cc1", "note": "[Compound 14]", "viability at 48 h": "80 to 120"}
{"smiles": "O=C(O)/C=C/c1ccc(OC(=O)CCCCC(=O)O)cc1", "note": "[Compound 4]", "viability at 48 h": "80 to 120"}
{"smiles": "CC(C)(C)OC(=O)NCCCC(=O)Oc1ccc(/C=C/C(=O)O)cc1OC(=O)CCCNC(=O)OC(C)(C)C", "note": "[Compound 12]", "viability at 48 h": "80 to 120"}
{"smiles": "CC(=O)Oc1ccccc1C(=O)N(C(=O)c1ccccc1OC(C)=O)c1ccc(/C=C/C(=O)O)cc1", "note": "[Compound 15]", "viability at 48 h": "80 to 120"}
{"smiles": "COC(=O)CCCCC(=O)Oc1ccc(/C=C/C(=O)O)cc1", "note": "[Compound 5]", "viability at 48 h": "80 to 120"}
{"smiles": "O=C(O)/C=C/c1ccc(NC(=O)c2ccccc2O)cc1", "note": "[Compound 33]", "viability at 48 h": "80 to 120"}
{"smiles": "O=C(O)/C=C/C(=O)Nc1ccc(/C=C/C(=O)O)cc1", "note": "[Compound 32]", "viability at 48 h": "80 to 120"}
{"smiles": "O=C(O)/C=C/c1ccc(NC(=O)CCCC(=O)O)cc1", "note": "[Compound 13]", "viability at 48 h": "80 to 120"}
